PubChem BioAssay (NCI)
Several values for one entry are separate records, joined by “and”; a condition that tells them apart may be missing. Identical values can stand only once.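 Method: 48-hour compound exposure of cells in 96-well plates, five concentrations, linear interpolation of endpoints. Abbreviation: GI50, concentration required for 50% inhibition of growth. The concentration for full growth arrest is given as TGI.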

These molecules were tested on MDA-MB-231 breast (assay: inhibition of tumour cell growth, NCI panel, 48 h).
c1ccc(Nc2ncc(-c3ccccc3)o2)cc1 gave a GI50 greater than 25 µM and a TGI greater than 25 µM.
COc1ccc(C(c2cc(OC)c(OC)c(OC)c2)n2cncn2)cc1O (stereo not given) gave a GI50 of 1.5 µM and a TGI greater than 100 µM.
COc1c2ccccc2c(OC)c2[nH]c(=O)ccc12 was tested, and the GI50 was 9.75 µM and the TGI was greater than 89.8 µM.
Molecule O=C(O)C(Cl)Cl has a GI50 greater than 10000 µM and a TGI greater than 10000 µM.
Molecule CN1CCN(c2ccc(Nc3ncc(Cl)c(NC[C@@H]4CCCO4)n3)cc2)CC1 has a GI50 of 1.62 µM and a TGI of 8.29 µM.

What follows are molecules tested on IGROV1 ovarian (assay: inhibition of tumour cell growth, NCI panel, 48 h).
c1ccc(Nc2ncc(-c3ccccc3)o2)cc1 was tested, and the GI50 was greater than 22 µM and the TGI was greater than 25 µM.
COc1ccc(C(c2cc(OC)c(OC)c(OC)c2)n2cncn2)cc1O (stereo not given) gave a GI50 of 0.959 µM and a TGI greater than 100 µM.
COc1c2ccccc2c(OC)c2[nH]c(=O)ccc12 gave a GI50 of 5.73 µM and a TGI greater than 100 µM.
Molecule O=C(O)C(Cl)Cl has a GI50 greater than 10000 µM and a TGI greater than 10000 µM.
CN1CCN(c2ccc(Nc3ncc(Cl)c(NC[C@@H]4CCCO4)n3)cc2)CC1 was tested, and the GI50 was 1.56 µM and the TGI was greater than 100 µM.

The molecules below were run on HS 578T breast (assay: inhibition of tumour cell growth, NCI panel, 48 h).
c1ccc(Nc2ncc(-c3ccccc3)o2)cc1 showed a GI50 of 11.5 µM and a TGI greater than 25 µM.
COc1ccc(C(c2cc(OC)c(OC)c(OC)c2)n2cncn2)cc1O (stereo not given) was tested, and the GI50 was 0.548 µM and the TGI was greater than 100 µM.
Work on COc1c2ccccc2c(OC)c2[nH]c(=O)ccc12 yielded a GI50 of 2.68 µM and a TGI of 20.7 µM.
With O=C(O)C(Cl)Cl the GI50 was 3090 µM and > 10000 µM and the TGI was greater than 10000 µM.
CN1CCN(c2ccc(Nc3ncc(Cl)c(NC[C@@H]4CCCO4)n3)cc2)CC1 showed a GI50 of 1.32 µM and a TGI of 11.2 µM.

These molecules were tested on HCT-15 colon (assay: inhibition of tumour cell growth, NCI panel, 48 h).
With c1ccc(Nc2ncc(-c3ccccc3)o2)cc1 the GI50 was 24.3 µM and the TGI was greater than 25 µM.
COc1ccc(C(c2cc(OC)c(OC)c(OC)c2)n2cncn2)cc1O (stereo not given) was tested, and the GI50 was 0.438 µM and the TGI was greater than 100 µM.
COc1c2ccccc2c(OC)c2[nH]c(=O)ccc12 was tested, and the GI50 was 1.78 µM and the TGI was 4.53 µM.
O=C(O)C(Cl)Cl was tested, and the GI50 was 6680 µM and > 10000 µM and the TGI was greater than 10000 µM.
CN1CCN(c2ccc(Nc3ncc(Cl)c(NC[C@@H]4CCCO4)n3)cc2)CC1 showed a GI50 of 2.04 µM and a TGI greater than 100 µM.

Each molecule was assayed on BT-549 breast (assay: inhibition of tumour cell growth, NCI panel, 48 h).
With c1ccc(Nc2ncc(-c3ccccc3)o2)cc1 the GI50 was greater than 25 µM and the TGI was greater than 25 µM.
In the case of COc1ccc(C(c2cc(OC)c(OC)c(OC)c2)n2cncn2)cc1O (stereo not given), the GI50 is reported as 0.618 µM and the TGI is reported as greater than 100 µM.
In the case of COc1c2ccccc2c(OC)c2[nH]c(=O)ccc12, the GI50 is reported as 2.07 µM and the TGI is reported as 4.51 µM.
With O=C(O)C(Cl)Cl the GI50 was 2780 µM and > 8920 µM and the TGI was greater than 10000 µM.
With CN1CCN(c2ccc(Nc3ncc(Cl)c(NC[C@@H]4CCCO4)n3)cc2)CC1 the GI50 was 2.24 µM and the TGI was 6.94 µM.

These molecules were tested on EKVX NSCLC (assay: inhibition of tumour cell growth, NCI panel, 48 h).
With c1ccc(Nc2ncc(-c3ccccc3)o2)cc1 the GI50 was greater than 25 µM and the TGI was greater than 25 µM.
Molecule COc1ccc(C(c2cc(OC)c(OC)c(OC)c2)n2cncn2)cc1O (stereo not given) has a GI50 of 2.24 µM and a TGI greater than 100 µM.
COc1c2ccccc2c(OC)c2[nH]c(=O)ccc12 showed a GI50 of 2.83 µM and a TGI greater than 100 µM.
O=C(O)C(Cl)Cl gave a GI50 greater than 10000 µM and a TGI greater than 10000 µM.
CN1CCN(c2ccc(Nc3ncc(Cl)c(NC[C@@H]4CCCO4)n3)cc2)CC1 gave a GI50 of 1.69 µM and a TGI of 5.74 µM.

These molecules were tested on SF-295 CNS (assay: inhibition of tumour cell growth, NCI panel, 48 h).
c1ccc(Nc2ncc(-c3ccccc3)o2)cc1 gave a GI50 greater than 25 µM and a TGI greater than 25 µM.
Work on COc1ccc(C(c2cc(OC)c(OC)c(OC)c2)n2cncn2)cc1O (stereo not given) yielded a GI50 of 0.325 µM and a TGI greater than 100 µM.
In the case of COc1c2ccccc2c(OC)c2[nH]c(=O)ccc12, the GI50 is reported as 1.44 µM and the TGI is reported as 3.29 µM.
In the case of O=C(O)C(Cl)Cl, the GI50 is reported as 4230 µM and > 10000 µM and the TGI is reported as greater than 10000 µM.
CN1CCN(c2ccc(Nc3ncc(Cl)c(NC[C@@H]4CCCO4)n3)cc2)CC1 showed a GI50 of 1.26 µM and a TGI of 26.3 µM.

The molecules below were run on SF-539 CNS (assay: inhibition of tumour cell growth, NCI panel, 48 h).
c1ccc(Nc2ncc(-c3ccccc3)o2)cc1 was tested, and the GI50 was greater than 25 µM and the TGI was greater than 25 µM.
Molecule COc1ccc(C(c2cc(OC)c(OC)c(OC)c2)n2cncn2)cc1O (stereo not given) has a GI50 of 0.3 µM and a TGI of 1.11 µM.
COc1c2ccccc2c(OC)c2[nH]c(=O)ccc12 gave a GI50 of 4.19 µM and a TGI greater than 36.5 µM.
O=C(O)C(Cl)Cl showed a GI50 greater than 10000 µM and a TGI greater than 10000 µM.
CN1CCN(c2ccc(Nc3ncc(Cl)c(NC[C@@H]4CCCO4)n3)cc2)CC1 gave a GI50 of 1.52 µM and a TGI of 4.22 µM.

These molecules were tested on DU-145 prostate (assay: inhibition of tumour cell growth, NCI panel, 48 h).
For c1ccc(Nc2ncc(-c3ccccc3)o2)cc1, the GI50 was greater than 25 µM and the TGI was greater than 25 µM.
Molecule COc1ccc(C(c2cc(OC)c(OC)c(OC)c2)n2cncn2)cc1O (stereo not given) has a GI50 of 0.531 µM and a TGI greater than 100 µM.
Work on COc1c2ccccc2c(OC)c2[nH]c(=O)ccc12 yielded a GI50 of 1.54 µM and a TGI of 3.32 µM.
For O=C(O)C(Cl)Cl, the GI50 was 5720 µM and > 10000 µM and the TGI was greater than 10000 µM.
CN1CCN(c2ccc(Nc3ncc(Cl)c(NC[C@@H]4CCCO4)n3)cc2)CC1 showed a GI50 of 1.96 µM and a TGI greater than 100 µM.

The molecules below were run on HOP-62 NSCLC (assay: inhibition of tumour cell growth, NCI panel, 48 h).
Molecule c1ccc(Nc2ncc(-c3ccccc3)o2)cc1 has a GI50 greater than 25 µM and a TGI greater than 25 µM.
Work on COc1ccc(C(c2cc(OC)c(OC)c(OC)c2)n2cncn2)cc1O (stereo not given) yielded a GI50 of 0.514 µM and a TGI greater than 100 µM.
Work on COc1c2ccccc2c(OC)c2[nH]c(=O)ccc12 yielded a GI50 of 2.01 µM and a TGI of 3.72 µM.
With O=C(O)C(Cl)Cl the GI50 was greater than 10000 µM and the TGI was greater than 10000 µM.
With CN1CCN(c2ccc(Nc3ncc(Cl)c(NC[C@@H]4CCCO4)n3)cc2)CC1 the GI50 was 0.705 µM and the TGI was 4.61 µM.
